Experimental data as given in patent US7495027B2, “3-aryl-4-hydroxyfuranone compounds and the human and animal health use thereof” (Wyeth, priority 2003, dated 2009).
Where two headings read alike, the source gives them in different places.

How the values were obtained:
[1] = target: T1, S. aureus UDP-N-acetylglucosamine enolpyruvoyl transferase, MurA (Staphylococcus aureus, UniProt P84058); assay: Inhibitory activity against MurA (S. aureus); type: biochemical; details: (S) S. aureus enzyme
T1 sequence (P84058 1-421): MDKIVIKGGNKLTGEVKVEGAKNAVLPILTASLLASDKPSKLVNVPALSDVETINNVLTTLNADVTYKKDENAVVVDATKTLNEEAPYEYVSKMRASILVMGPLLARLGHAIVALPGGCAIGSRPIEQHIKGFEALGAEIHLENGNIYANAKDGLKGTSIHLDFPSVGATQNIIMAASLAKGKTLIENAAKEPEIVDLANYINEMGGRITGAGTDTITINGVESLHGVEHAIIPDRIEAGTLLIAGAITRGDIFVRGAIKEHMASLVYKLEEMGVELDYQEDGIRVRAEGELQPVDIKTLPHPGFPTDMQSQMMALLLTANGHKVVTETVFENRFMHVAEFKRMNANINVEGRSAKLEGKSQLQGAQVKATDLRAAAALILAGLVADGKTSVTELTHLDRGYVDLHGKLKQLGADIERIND
Description: Evaluation of the Inhibitory Activity of Test Compounds Against Enzymes which Catalyze Bacterial Cell Wall Biosynthesis
S. aureus and E. coli UDP-N-acetylglucosamine enolpyruvoyl transferase, MurA
Preparation of Enzyme Solution:
The enzyme solution is prepared by admixing the following: 50 mM Tris/HCl pH 8.0, […] 1 M Tris, 5 mM DTT, […] 1 M DTT, 20% Glycerol 4 ml 50% Glycerol, add water to 10 ml.
Preparation of Stop Solution:
The stop solution is prepared by mixing the following: 4.2% ammonium molybdate in 4N HCl, 8.4 g/200 ml 4N HCl, 0.045% malachite green, 90 mg/200 ml water, then stir 1 part ammonium molybdate with 2 parts malachite green for 30 min.
A procedure similar to that described by C. T. Walsh in Biochemistry 33, 10646-10651, is used to evaluate the inhibitory activity of test compounds against MurA, the enzyme which catalyzes the first step of bacterial cell wall biosynthesis. Experiments are performed by adding a solution of test compound (in a mixture of dimethylsulfoxide and water) and an enzyme solution to a well. After a pre-incubation period of 10 mintues at 37° C., Tris/BME buffer and assay buffer are added. A start point optical density (OD0) reading is taken at 340 nm immediately following the addition of assay buffer. After incubation for 1 hr at 37° C., the stop solution is added and the color is allowed to develop for 30 minutes. An end point OD1 reading at […] is then taken. […]

[2] = tested on: larvae of blowfly, Lucilia sericata; assay: whole plant or invertebrate; details: dose rate of 20 ppm, Lucilia sericata larvae on treated filter paper with bovine serum
Description: Comparative Evaluation of the Efficacy of a 3-Aryl-4-hydroxyfuranone Compound Against Blowfly Larvae
In this evaluation, filter paper discs are treated with an acetone solution of test compound and allowed to dry. Bovine serum and newly emerged larvae of blowfly, Lucilia sericata, are added to the treated filter paper. Mortality is assessed at 24 h and 48 h. When more than one evaluation is performed, the data are averaged.

[3] = assessed at 24 h, read-out: % Mortality 24 h
[4] = assessed at 48 h, read-out: % Mortality 48 h

Structure (SMILES)	IC50 [1]	melting point	other results
O=C1O/C(=C\c2ccccc2-c2ccc(Cl)c(Cl)c2)C(O)=C1c1ccc(Cl)c(Cl)c1 [Example 141]	6.27 µM	–	–
O=C1O/C(=C\c2ccc(-c3ccccc3)cc2)C(O)=C1c1ccc(Cl)cc1 [Example 53]	–	282 to 285 °C	–
CN(C)c1ccc(/C=C2\OC(=O)C(c3ccc(C(F)(F)F)cc3)=C2O)c2ccccc12 [Example 81]	> 58.8 µM	–	–
COc1ccccc1-c1ccc(/C=C2\OC(=O)C(c3cccc(Cl)c3)=C2O)cc1C [Example 23]	33.4 µM	–	–
Cc1cc(/C=C2\OC(=O)C(c3cccc(Cl)c3)=C2O)ccc1-c1ccccc1Cl [Example 30]	7.09 µM	–	–
CN(C)c1ccc(C=C2OC(=O)C(c3cc(Cl)cc(Cl)c3)=C2O)c2ccccc12 [Example 80]	–	–	MurA IC50 [1]: 15 (S) μg/mL
O=C1O/C(=C\c2cccc3ccccc23)C(O)=C1c1ccc(C(F)(F)F)cc1 [Example 71]	> 65.4 µM	245 to 247 °C	–
O=C1O/C(=C\c2ccc(-c3ccccc3)cc2)C(O)=C1c1cccc(C(F)(F)F)c1 [Example 10]	–	240 to 241.5 °C	–
Cc1cc(C=C2OC(=O)C(c3cc(Cl)cc(Cl)c3)=C2O)ccc1-c1ccccc1Cl [Example 31]	–	–	MurA IC50 [1]: 2 (S) μg/mL
O=C1OC(=Cc2cccc3ccccc23)C(O)=C1c1ccc(C=NO)cc1 (mixture of isomers) [Example 73]	–	–	MurA IC50 [1]: >25 (S) μg/mL
CCOC(=O)c1cccc(C2=C(O)C(=Cc3cccc4ccccc34)OC2=O)c1 [Example 75]	–	–	MurA IC50 [1]: >25 (S) μg/mL
CN(C)c1ccc(/C=C2\OC(=O)C(c3cc(Cl)cc(Cl)c3)=C2O)c2ccccc12 [Example 79]	32.8 µM	–	–
O=C1O/C(=C\c2cccc(-c3cc(Cl)cc(Cl)c3)c2)C(O)=C1c1cc(Cl)cc(Cl)c1 [Example 136]	2.09 µM	–	–
COc1cc(/C=C2\OC(=O)C(c3cc(Cl)cc(Cl)c3)=C2O)ccc1-c1ccccc1C(F)(F)F [Example 33]	7.89 µM	–	–
O=C1O/C(=C\c2ccc(-c3cc(Cl)cc(Cl)c3)cc2)C(O)=C1c1cc(Cl)cc(Cl)c1	–	–	mortality at 20 ppm [2, 3]: 0%; mortality at 20 ppm [2, 4]: 0%
O=C1O/C(=C\C2CCCCC2)C(O)=C1c1ccc(Cl)cc1 [Example 15]	–	200 to 205 °C	–
Cc1ccccc1-c1ccc(/C=C2\OC(=O)C(c3cc(Cl)cc(Cl)c3)=C2O)cc1C [Example 29]	4.57 µM	–	–
COc1ccccc1-c1ccc(/C=C2\OC(=O)C(c3cc(Cl)cc(Cl)c3)=C2O)cc1C [Example 24]	15.4 µM	–	–
COc1ccccc1-c1ccc(/C=C2\OC(=O)C(c3ccc(Cl)c(Cl)c3)=C2O)cc1OC [Example 20]	> 53.3 µM	–	–

Structure (SMILES)	IC50 [1]	melting point	other results
COc1cc(/C=C2\OC(=O)C(c3cccc(Cl)c3)=C2O)ccc1-c1ccccc1C(F)(F)F [Example 32]	21.1 µM	–	–
O=C1O/C(=C\c2cccc3ccccc23)C(O)=C1c1cccc(C=NO)c1 [Example 77]	–	–	MurA IC50 [1]: >25 (S) μg/mL
O=C1O/C(=C\c2ccc(-c3ccc(Cl)cc3)cc2)C(O)=C1c1ccc(Cl)cc1 [R=H, R1=4-Cl—C6H4, R2=4-(4′-Cl-biphenyl)]	–	–	mortality at 20 ppm [2, 3]: 0%; mortality at 20 ppm [2, 4]: 0%
O=C1O/C(=C\c2ccc(-c3cccc(C(F)(F)F)c3)cc2)C(O)=C1c1cccc(C(F)(F)F)c1	–	–	% Mortality 24 h ([2]; assessed at 24 h): 0%; % Mortality 48 h ([2]; assessed at 48 h): 0%
O=C1O/C(=C\c2ccc(C(F)(F)F)cc2)C(O)=C1c1ccc(-c2ccccc2)cc1 [R=H, R1=4-(biphenyl), R2=4-CF3—C6H4]	–	–	mortality at 20 ppm [2, 3]: 0%; mortality at 20 ppm [2, 4]: 0%
O=C1O/C(=C\c2ccc(-c3ccccc3)cc2)C(O)=C1c1cc(Cl)cc(Cl)c1 [Example 67]	–	279 to 280 °C	–
O=C1O/C(=C\c2cc(C(F)(F)F)ccc2Cl)C(O)=C1c1ccc(N2CCOCC2)c(F)c1 [Example 142]	–	–	MurA IC50 [1]: >25 (S) μg/mL
O=C1O/C(=C\c2ccc(N3CCOCC3)c3ccccc23)C(O)=C1c1cc(Cl)cc(Cl)c1 [Example 38]	> 53.4 µM	–	–
Cc1cc(/C=C2\OC(=O)C(c3cc(Cl)cc(Cl)c3)=C2O)ccc1-c1ccccc1OS(C)(=O)=O [Example 39]	–	–	MurA IC50 [1]: 15 (S) μg/mL
O=C1O/C(=C\c2ccc3ccccc3c2)C(O)=C1c1ccc2ccccc2c1 [Example 52]	–	285 to 290 °C	–
O=C1O/C(=C\c2ccc3ccccc3c2)C(O)=C1c1cccc2ccccc12 [Example 56]	–	235 to 237 °C	–
O=C1O/C(=C\c2cccc3ccccc23)C(O)=C1c1cccc2ccccc12 [Example 47]	–	216 to 218 °C	–
COc1cccc(C2=C(O)/C(=C/c3cccc4ccccc34)OC2=O)c1 [Example 72]	> 72.6 µM	214 to 216 °C	–
CN(C)c1ccc(/C=C2\OC(=O)C(c3ccc(Cl)cc3)=C2O)c2ccccc12 [Example 78]	> 63.8 µM	–	–
O=C1O/C(=C\c2ccc(N3CCOCC3)c(F)c2)C(O)=C1c1cc(Cl)cc(Cl)c1 [Example 34]	–	–	MurA IC50 [1]: 22 (S) μg/mL
O=C1O/C(=C\c2ccc3ccccc3c2)C(O)=C1c1ccc(Cl)cc1 [Example 54]	–	284 to 286 °C	–
O=C1O/C(=C\c2ccc(-c3ccccc3)cc2)C(O)=C1c1cccc(Cl)c1 [Example 69]	–	248 to 250 °C	–
O=C1O/C(=C\c2ccc(Cl)cc2)C(O)=C1c1ccc(-c2ccccc2)c(F)c1 [Example 138]	17.8 µM	255 to 258 °C	–
O=C1O/C(=C\c2ccc(-c3ccccc3)cc2)C(O)=C1c1csc2ccccc12 [Example 143]	> 63.1 µM	270 °C	–

Structure (SMILES)	IC50 [1]	melting point	other results
O=C1O/C(=C\c2ccccc2-c2ccc(Cl)cc2)C(O)=C1c1ccc(Cl)cc1 [Example 137]	31.8 µM	–	–
COc1cc(/C=C2\OC(=O)C(c3cccc(Cl)c3)=C2O)ccc1-c1ccccc1Cl [Example 18]	13.7 µM	–	–
O=C1O/C(=C\c2cccc3ccccc23)C(O)=C1c1ccc(-c2ccccc2)cc1 [R=H, R1=4-biphenyl, R2=1-naphthyl]	–	–	mortality at 20 ppm [2, 3]: 100%; mortality at 20 ppm [2, 4]: 100%
COc1cc(/C=C2\OC(=O)C(c3cc(Cl)cc(Cl)c3)=C2O)ccc1-c1ccccc1C [Example 25]	11 µM	–	–
Cc1cc(/C=C2\OC(=O)C(c3cccc(Cl)c3)=C2O)ccc1-c1ccccc1C(F)(F)F [Example 26]	8.76 µM	–	–
COC(=O)c1ccc(C2=C(O)/C(=C/c3cccc4ccccc34)OC2=O)cc1 [Example 74]	> 67.1 µM	242 to 244 °C	–
O=C1O/C(=C\c2ccc(Cl)cc2)C(O)=C1c1ccc2ccccc2c1 [Example 43]	–	243 to 250 °C	–
O=C1O/C(=C\C2CCCCC2)C(O)=C1c1ccc(-c2ccccc2)cc1 [Example 100]	–	204 to 207 °C	–
Cc1ccccc1-c1ccc(/C=C2\OC(=O)C(c3cccc(Cl)c3)=C2O)cc1C [Example 28]	24.8 µM	–	–
COc1ccc(/C=C2\OC(=O)C(c3cc(Cl)cc(Cl)c3)=C2O)c2ccccc12 [Example 36]	14.5 µM	–	–
O=C1O/C(=C\c2ccc(N3CCOCC3)c3ccccc23)C(O)=C1c1cccc(Cl)c1 [Example 37]	> 57.6 µM	–	–
O=C1O/C(=C\c2ccccc2-c2cccc(Cl)c2)C(O)=C1c1cccc(Cl)c1 [Example 140]	26.9 µM	–	–
COc1ccccc1-c1ccc(/C=C2\OC(=O)C(c3cc(Cl)cc(Cl)c3)=C2O)cc1OC [Example 19]	36.2 µM	–	–
Cc1ccc(/C=C2\OC(=O)C(c3ccc(-c4ccccc4)cc3)=C2O)s1 [Example 104]	–	235 to 240 °C	–
O=C1O/C(=C\c2cccnc2)C(O)=C1c1ccc(-c2ccccc2)cc1 [Example 101]	–	252 to 255 °C	–
Cc1cc(/C=C2\OC(=O)C(c3cc(Cl)cc(Cl)c3)=C2O)ccc1-c1ccccc1C(F)(F)F [Example 27]	4.07 µM	–	–
COc1cc(/C=C2\OC(=O)C(c3cc(Cl)cc(Cl)c3)=C2O)ccc1-c1ccccc1Cl [Example 21]	10.6 µM	–	–
COc1ccc(C=C2OC(=O)C(c3cccc(Cl)c3)=C2O)c2ccccc12 [Example 35]	–	–	MurA IC50 [1]: >25 (S) μg/mL
COc1cc(/C=C2\OC(=O)C(c3cccc(Cl)c3)=C2O)ccc1-c1ccccc1C [Example 22]	21.5 µM	–	–
